Source: US20130197085A1, “AGENT AND METHOD FOR STABILIZING MEMBRANE PROTEIN” (priority 2007, published 2013)

What was measured:
Format in all cases: cell-based
wild-type BSEP [1] = target: T1, wild-type BSEP (Homo sapiens, UniProt O95342, L339V); experiment: Treatment with actinomycin D and cycloheximide, upregulation of mature BSEP by 4PBA in MDCKII cells; settings: 1 mM 4PBA, 8 hours
T1 construct: expressed in transfected cells; host or cells: MDCKII cells infected with recombinant adenovirus
T1 sequence (O95342 whole entry L339V): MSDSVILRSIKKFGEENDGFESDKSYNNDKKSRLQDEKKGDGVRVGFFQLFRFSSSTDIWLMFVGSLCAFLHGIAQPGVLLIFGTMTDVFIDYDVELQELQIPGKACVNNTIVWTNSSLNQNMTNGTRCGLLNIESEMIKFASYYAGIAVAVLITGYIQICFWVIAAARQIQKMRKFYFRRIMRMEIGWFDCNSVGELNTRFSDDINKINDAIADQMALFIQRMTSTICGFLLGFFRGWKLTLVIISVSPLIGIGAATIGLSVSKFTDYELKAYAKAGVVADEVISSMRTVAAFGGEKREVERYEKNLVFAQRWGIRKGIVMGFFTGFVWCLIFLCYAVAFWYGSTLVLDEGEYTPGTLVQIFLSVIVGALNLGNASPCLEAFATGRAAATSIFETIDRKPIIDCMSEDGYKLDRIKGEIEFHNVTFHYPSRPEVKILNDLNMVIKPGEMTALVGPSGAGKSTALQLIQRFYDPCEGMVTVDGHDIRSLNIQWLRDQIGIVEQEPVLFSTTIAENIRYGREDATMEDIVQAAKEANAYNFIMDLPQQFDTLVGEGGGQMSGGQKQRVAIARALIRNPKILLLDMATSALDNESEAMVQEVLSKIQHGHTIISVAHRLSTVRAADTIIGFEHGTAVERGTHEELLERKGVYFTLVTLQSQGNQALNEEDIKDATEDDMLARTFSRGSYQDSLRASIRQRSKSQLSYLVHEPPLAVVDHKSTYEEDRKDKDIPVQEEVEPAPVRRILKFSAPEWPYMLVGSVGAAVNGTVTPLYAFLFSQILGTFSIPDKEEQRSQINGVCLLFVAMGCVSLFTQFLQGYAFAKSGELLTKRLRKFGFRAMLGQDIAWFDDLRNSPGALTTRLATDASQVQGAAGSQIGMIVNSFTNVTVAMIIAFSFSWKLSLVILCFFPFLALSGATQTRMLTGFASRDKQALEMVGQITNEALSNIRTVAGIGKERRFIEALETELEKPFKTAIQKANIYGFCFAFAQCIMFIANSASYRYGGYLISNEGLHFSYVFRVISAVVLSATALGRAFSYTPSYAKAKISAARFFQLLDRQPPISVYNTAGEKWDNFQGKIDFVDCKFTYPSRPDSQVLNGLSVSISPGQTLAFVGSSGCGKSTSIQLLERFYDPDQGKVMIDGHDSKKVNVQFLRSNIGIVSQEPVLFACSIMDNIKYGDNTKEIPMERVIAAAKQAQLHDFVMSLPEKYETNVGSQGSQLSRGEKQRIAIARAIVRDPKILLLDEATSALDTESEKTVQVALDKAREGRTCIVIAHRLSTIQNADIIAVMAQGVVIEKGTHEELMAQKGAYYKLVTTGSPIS
Protocol: (§1) MDCKII cells were dispersed on a 6-well plate, resulting in a density of 2.5×10^5 cells/well. After completion of the culture for 24 hours, the confluent cells were infected with recombinant adenoviruses having the cDNAs of wild-type, E297G and D482G BSEPs, and GFP, at 200 MOI. After completion of the infection, the cells were cultured for 36 hours. Thereafter, in order to inhibit mRNA synthesis, the cells were treated in the presence or absence of 5 μg/ml actinomycin D (Sigma). Otherwise, in order to inhibit protein synthesis, the cells were treated in the presence or absence of 20 μg/ml cycloheximide (Sigma). After completion of the treatment for 2 hours, in the presence or absence of actinomycin D or in the presence or absence of cycloheximide, 4PBA was added to the cells to a concentration of 1 mM. At the time point of 6 hours (E297G and D482G BSEPs) or 8 hours (wild-type BSEP) after the 4PBA treatment, a crude membrane fraction was prepared. The obtained fraction was separated by 6% SDS-PAGE, and Western blotting was then carried out.

E297G BSEP [2] = target: T2, E297G BSEP (Homo sapiens, UniProt O95342, E297G/L339V); experiment: as above; settings: 1 mM 4PBA, 6 hours
T2 construct: expressed in transfected cells; host or cells: MDCKII cells infected with recombinant adenovirus
T2 sequence (O95342 whole entry E297G/L339V): as the sequence (O95342 whole entry L339V) above, with E297G counted along it
Protocol: as §1

D482G BSEP [3] = target: T3, D482G BSEP (Homo sapiens, UniProt O95342, D482G/L339V); experiment: as above; settings: 1 mM 4PBA, 6 hours
T3 construct: expressed in transfected cells; host or cells: MDCKII cells infected with recombinant adenovirus
T3 sequence (O95342 whole entry L339V/D482G): as the sequence (O95342 whole entry L339V) above, with D482G counted along it
Protocol: as §1

wild-type BSEP [4] = target: T1, wild-type BSEP; experiment: Transcellular transport assay of [^3H] TC across MDCKII monolayer; settings: 24 hours
Protocol: (§2) MDCKII cells were dispersed on a Transwell membrane insert (pore size: […]; Falcon) of a 24-well plate, resulting in a density of 1.5×10^5 cells/insert. Two days after the culture, the confluent cells were infected with recombinant adenoviruses having the cDNAs of wild-type, E297G and D482G BSEPs, and GFP, at 50 MOI. […] After completion of the treatment for 24 hours, a transcellular transport assay was carried out (see Mita et al., Am J Physiol Gastrointest Liver Physiol 290: G550-G556, 2006).
(§3) The apparent efflux clearance across the apical membrane (PSapical) was calculated by dividing a steady rate of the transcellular transport of [^3H] TC for 2 hours by the intracellular concentration of the [^3H] TC at the termination of the experiment (2 hours later).

E297G BSEP [5] = target: T2, E297G BSEP; experiment: as above; settings: 24 hours
Protocol: as §2, §3

D482G BSEP [6] = target: T3, D482G BSEP; experiment: as above; settings: 24 hours
Protocol: as §2, §3

wild-type BSEP [7] = target: T1, wild-type BSEP; experiment: Brefeldin A washing experiment, maturation of BSEP in MDCKII cells; settings: 1 mM 4PBA
Protocol: as §1, with “for 12” for “for 36”, “inhibit the transport of BSEP from the endoplasmic reticulum to the Golgi body,” for “inhibit mRNA synthesis,”, “μg/ml brefeldin A” for “μg/ml actinomycin D (Sigma). Otherwise, in order to inhibit protein synthesis, the cells were treated in the presence or absence of 20 μg/ml cycloheximide”, “of brefeldin A,” for “of actinomycin D or in the presence or absence of cycloheximide,”, “of 12” for “of 6”, “hours” for “hours (E297G and D482G BSEPs) or 8 hours (wild-type BSEP)”
(§4) The promotion of a process of converting an immature BSEP existing in the endoplasmic reticulum to a mature BSEP existing on the cell surface is considered to be a post-translation mechanism that may be associated with an increase in the expression of the mature BSEP on the cell surface. In order to evaluate the effects of the 4PBA treatment on the maturation of a BSEP, the transport of the BSEP from the endoplasmic reticulum to the Golgi body was inhibited with brefeldin A (BFA), the BFA was then washed out, and the maturation rate of the BSEP on MDCKII cells was measured. BFA is an agent for inducing the accumulation of an immature BSEP existing in the endoplasmic reticulum (FIGS. 5A and 5B). The maturation rate was evaluated by washing out such BFA and then measuring an increased amount of the band density of a mature BSEP over time according to Western blotting. The band density of the mature BSEP was calculated by subtracting the band density at 0 (zero) hour from the band density at each measurement time (FIG. 5B). […] In addition, in the case of mature BSEPs, the expression levels were not changed until 3 hours after the washing out of BFA, regardless of the presence or absence of 4PBA. […] At the time point 8 hours after the washing out of BFA, the MDCKII cells treated with 4PBA were compared with the MDCKII cells that had not been treated with 4PBA. As a result, the expression level of a mature BSEP in the MDCKII cells treated with 4PBA was higher than the same expression level in the MDCKII cells that had not been treated with 4PBA.

E297G BSEP [8] = target: T2, E297G BSEP; experiment: as above; settings: 1 mM 4PBA
Protocol: as §1, with “for 12” for “for 36”, “inhibit the transport of BSEP from the endoplasmic reticulum to the Golgi body,” for “inhibit mRNA synthesis,”, “μg/ml brefeldin A” for “μg/ml actinomycin D (Sigma). Otherwise, in order to inhibit protein synthesis, the cells were treated in the presence or absence of 20 μg/ml cycloheximide”, “of brefeldin A,” for “of actinomycin D or in the presence or absence of cycloheximide,”, “of 12” for “of 6”, “hours” for “hours (E297G and D482G BSEPs) or 8 hours (wild-type BSEP)”
as §4

D482G BSEP [9] = target: T3, D482G BSEP; experiment: as above; settings: 1 mM 4PBA
Protocol: as §1, with “for 12” for “for 36”, “inhibit the transport of BSEP from the endoplasmic reticulum to the Golgi body,” for “inhibit mRNA synthesis,”, “μg/ml brefeldin A” for “μg/ml actinomycin D (Sigma). Otherwise, in order to inhibit protein synthesis, the cells were treated in the presence or absence of 20 μg/ml cycloheximide”, “of brefeldin A,” for “of actinomycin D or in the presence or absence of cycloheximide,”, “of 12” for “of 6”, “hours” for “hours (E297G and D482G BSEPs) or 8 hours (wild-type BSEP)”
as §4

extrinsic P-gp = experiment: Decomposition rate of cell surface-expressed protein (biotin-labeling) in MDCKII cells; settings: 1 mM 4PBA
[10] = 1 mM, PSapical minus PSapical of GFP cells
[11] = 8 hours after the washing out of BFA
[12] = immediately after the washing out of BFA (hour 0)

Structure (SMILES): O=C(O)CCCc1ccccc1 [4PBA, 4-phenylbutyric acid]
- effect of transcription inhibition by actinomycin D on the increase in expression of mature BSEP due to 4PBA (wild-type BSEP [1]; actinomycin D 5 μg/ml): did not affect
- effect of translation inhibition by cycloheximide on the increase in expression of mature BSEP due to 4PBA (wild-type BSEP [1]; cycloheximide 20 μg/ml): did not affect
- effect of transcription inhibition by actinomycin D on the increase in expression of mature BSEP due to 4PBA (E297G BSEP [2]; actinomycin D 5 μg/ml): did not affect
- effect of translation inhibition by cycloheximide on the increase in expression of mature BSEP due to 4PBA (E297G BSEP [2]; cycloheximide 20 μg/ml): did not affect
- effect of transcription inhibition by actinomycin D on the increase in expression of mature BSEP due to 4PBA (D482G BSEP [3]; actinomycin D 5 μg/ml): did not affect
- effect of translation inhibition by cycloheximide on the increase in expression of mature BSEP due to 4PBA (D482G BSEP [3]; cycloheximide 20 μg/ml): did not affect
- efflux of [^3H] TC from the apical side to the base side (wild-type BSEP [4]; 1 mM, MDCKII monolayer): did not influence
- efflux of [^3H] TC from the base side to the apical side, increase (wild-type BSEP [4]; 1 mM, MDCKII monolayer): 1.5 times
- BSEP-dependent PSapical value (PSapical, BSEP), increase (wild-type BSEP [4]; [10]): 1.7 times
- PSapical value (wild-type BSEP [4]; 4PBA treatment 1 mM): increased
- efflux of [^3H] TC from the apical side to the base side (E297G BSEP [5]; 1 mM, MDCKII monolayer): did not influence
- efflux of [^3H] TC from the base side to the apical side, increase (E297G BSEP [5]; 1 mM, MDCKII monolayer): 2.5 times
- BSEP-dependent PSapical value (PSapical, BSEP), increase (E297G BSEP [5]; [10]): 3.0 times
- PSapical value (E297G BSEP [5]; 4PBA treatment 1 mM): increased
- efflux of [^3H] TC from the apical side to the base side (D482G BSEP [6]; 1 mM, MDCKII monolayer): did not influence
- efflux of [^3H] TC from the base side to the apical side, increase (D482G BSEP [6]; 1 mM, MDCKII monolayer): 3 times
- BSEP-dependent PSapical value (PSapical, BSEP), increase (D482G BSEP [6]; [10]): 2.8 times
- PSapical value (D482G BSEP [6]; 4PBA treatment 1 mM): increased
- expression level of mature BSEP, 4PBA-treated vs not treated cells (wild-type BSEP [7]; [11]): higher
- expression level of immature BSEP in the endoplasmic reticulum, with vs without 4PBA (wild-type BSEP [7]; [12]): almost the same
- expression level of mature BSEP, 4PBA-treated vs not treated cells (E297G BSEP [8]; [11]): higher
- expression level of immature BSEP in the endoplasmic reticulum, with vs without 4PBA (E297G BSEP [8]; [12]): almost the same
- expression level of mature BSEP, 4PBA-treated vs not treated cells (D482G BSEP [9]; [11]): higher
- expression level of immature BSEP in the endoplasmic reticulum, with vs without 4PBA (D482G BSEP [9]; [12]): almost the same
- decomposition of extrinsic P-gp on the cell surface (extrinsic P-gp): not influenced
